According to patent US12234224B2, “Pyrimidine and pyridine amine compounds and usage thereof in disease treatment” (Epigen Biosciences, Inc., priority 2021, dated 2025):

molecular target: T1, Recombinant human p70S6K kinase (Homo sapiens, UniProt P23443); test: S6K Enzymatic Inhibition Assay (HotSpot kinase assay; called S6K binding assay in Table 2); type: biochemical; settings: IC50 class
T1 construct: purchased ThermoFisher Scientific PV3815
Protocol: Enzymatic activity was determined using a commercial HotSpot kinase assay. Recombinant human p70S6K kinase was purchased from ThermoFisher Scientific (cat #PV3815). The substrate S6K/RSK2 peptide 2 was synthesized at Genscript [Piscataway, NJ]. In brief, the substrate was prepared in the reaction buffer [20 mM Hepes (pH 7.5), 10 mM MgCl2, 1 mM EGTA, 0.02% Brij35, 0.02 mg/mL BSA, 0.1 mM Na3VO4, 2 mM DTT, 1% DMSO]. Testing compounds were dissolved in 100% DMSO and a serial dilution was conducted in DMSO. The kinase at final concentration of 3 nM was added into the substrate solution and gently mixed. Test compounds were delivered at the appropriate concentrations into the kinase reaction mixture by Echo550, and incubated for 20 minutes at room temperature. ^33P-ATP (Specific activity 10 μCi/μL) was added into the reaction mixture to initiate the reaction. Assay plates were incubated for 2 hours at room temperature. The radioactivity was detected by filter-binding method. Kinase activity data is expressed as the percent remaining kinase activity in test samples compared to vehicle (DMSO) reactions. IC50 curves were plotted and IC50 values were calculated using the GraphPad Prism 4 program based on a sigmoidal dose-response equation.

T1 sequence (P23443 whole entry): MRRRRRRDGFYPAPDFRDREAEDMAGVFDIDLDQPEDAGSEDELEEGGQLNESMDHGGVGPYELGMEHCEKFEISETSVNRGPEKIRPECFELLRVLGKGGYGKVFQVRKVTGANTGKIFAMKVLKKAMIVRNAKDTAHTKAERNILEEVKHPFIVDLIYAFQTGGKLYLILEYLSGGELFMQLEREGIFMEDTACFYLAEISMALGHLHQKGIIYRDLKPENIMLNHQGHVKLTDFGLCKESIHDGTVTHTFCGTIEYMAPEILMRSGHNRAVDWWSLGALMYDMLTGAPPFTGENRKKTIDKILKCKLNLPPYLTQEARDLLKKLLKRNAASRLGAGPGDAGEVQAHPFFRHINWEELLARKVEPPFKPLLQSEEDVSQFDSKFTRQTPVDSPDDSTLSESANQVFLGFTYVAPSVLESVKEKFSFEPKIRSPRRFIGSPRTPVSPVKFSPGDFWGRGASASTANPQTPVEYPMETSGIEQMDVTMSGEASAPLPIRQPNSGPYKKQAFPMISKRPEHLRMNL

SMILES | IC50 [nM]
Cn1cc(-c2ncnc(N)c2-c2ccc(Cl)cc2)cn1 [Example 2, 5-(p-Chlorophenyl)-6-(1-methyl-1H-pyrazol-4-yl)-4-pyrimidinylamine] | 50 to 500
Nc1ncnc(-c2cnn(Cc3cccc(F)c3)c2)c1-c1ccc(Cl)cc1 [Example 15, 5-(p-Chlorophenyl)-6-{1-[(m-fluorophenyl)methyl]-1H-pyrazol-4-yl}-4-pyrimidinylamine] | < 50
NCC(c1ccccc1)n1cc(-c2ncnc(N)c2-c2ccc(Cl)cc2)cn1 (racemic) [Example 6, (±)-6-[1-(2-Amino-1-phenylethyl)-1H-pyrazol-4-yl]-5-(p-chlorophenyl)-4-pyrimidinamine] | < 50
Nc1ncnc(-c2cnn(Cc3ccc(C(F)(F)F)cc3)c2)c1-c1ccc(Cl)c(Cl)c1 [Example 28, 5-(3,4-Dichlorophenyl)-6-(1-{[p-(trifluoromethyl)phenyl]methyl}-1H-pyrazol-4-yl)-4-pyrimidinylamine] | 500 to 10000
Nc1ncnc(-c2cnn(Cc3ccccc3C(F)(F)F)c2)c1-c1ccc(Cl)cc1 [Example 17, 5-(p-Chlorophenyl)-6-(1-{[o-(trifluoromethyl)phenyl]methyl}-1H-pyrazol-4-yl)-4-pyrimidinylamine] | 50 to 500
Nc1ncnc(-c2cnn(Cc3ccc(Cl)cc3)c2)c1-c1ccc(Cl)cc1 [Example 16, 5-(p-Chlorophenyl)-6-{1-[(p-chlorophenyl)methyl]-1H-pyrazol-4-yl}-4-pyrimidinylamine] | < 50
Nc1ncnc(-c2cnn(-c3cccc(Cl)c3)c2)c1-c1ccc(Cl)cc1 [Example 12, 5-(p-Chlorophenyl)-6-[1-(m-chlorophenyl)-1H-pyrazol-4-yl]-4-pyrimidinylamine] | 500 to 10000
Nc1ncnc(-n2cc(C(=O)c3ccccc3)cn2)c1-c1ccc(Cl)cc1 [Example 22, {1-[6-Amino-5-(p-chlorophenyl)-4-pyrimidinyl]-1H-pyrazol-4-yl}phenylmethanone] | 500 to 10000
Nc1ncnc(-c2cnn(-c3cccc(C(F)(F)F)c3)c2)c1-c1ccc(Cl)cc1 [Example 13, 5-(p-Chlorophenyl)-6-{1-[m-(trifluoromethyl)phenyl]-1H-pyrazol-4-yl}-4-pyrimidinylamine] | 500 to 10000
Nc1ncnc(-c2cnn(C(CO)c3ccccc3)c2)c1-c1ccc(Cl)cc1 (racemic) [Example 5, (±)-2-{4-[6-Amino-5-(p-chlorophenyl)-4-pyrimidinyl]-1H-pyrazol-1-yl}-2-phenylethanol] | < 50
Nc1ncnc(-c2cnn(Cc3ccc(C(F)(F)F)cc3)c2)c1-c1ccc(F)cc1 [Example 25, 5-(p-Fluorophenyl)-6-(1-{[p-(trifluoromethyl)phenyl]methyl}-1H-pyrazol-4-yl)-4-pyrimidinylamine] | < 50
COc1ccc(-c2c(-c3cnn(Cc4ccc(C(F)(F)F)cc4)c3)ccnc2N)cc1 [Example 38, 3-(p-Methoxyphenyl)-4-(1-{[p-(trifluoromethyl)phenyl]methyl}-1H-pyrazol-4-yl)-2-pyridylamine] | < 50
COc1cc(-c2c(N)ncnc2-c2cnn(Cc3ccc(C(F)(F)F)cc3)c2)ccc1F [Example 33, 5-(4-Fluoro-3-methoxyphenyl)-6-(1-{[p-(trifluoromethyl)phenyl]methyl}-1H-pyrazol-4-yl)-4-pyrimidinylamine] | 500 to 10000
Nc1nccc(-c2cnn(Cc3ccc(C(F)(F)F)cc3)c2)c1-c1ccc(Cl)cc1 [Example 39, 3-(p-Chlorophenyl)-4-(1-{[p-(trifluoromethyl)phenyl]methyl}-1H-pyrazol-4-yl)-2-pyridylamine] | < 50
Nc1cc(-c2cnn(Cc3ccc(C(F)(F)F)cc3)c2)ccn1 [Example 36, 4-(1-{[p-(Trifluoromethyl)phenyl]methyl}-1H-pyrazol-4-yl)-2-pyridylamine] | 500 to 10000
Nc1cc(-c2cnn(Cc3ccc(C(F)(F)F)cc3)c2)c(Cl)cn1 [Example 37, 5-Chloro-4-(1-{[p-(trifluoromethyl)phenyl]methyl}-1H-pyrazol-4-yl)-2-pyridylamine] | 500 to 10000
Nc1ncnc(-c2cnn(Cc3ccc(C(F)(F)F)cc3)c2)c1-c1ccc(OC(F)(F)F)cc1 [Example 34, 5-(p-Trifluoromethoxyphenyl)-6-(1-{[p-(trifluoromethyl)phenyl]methyl}-1H-pyrazol-4-yl)-4-pyrimidinylamine] | 500 to 10000
Nc1ncnc(-c2cnn(-c3ccccc3)c2)c1-c1ccc(Cl)cc1 [Example 10, 5-(p-Chlorophenyl)-6-(1-phenyl-1H-pyrazol-4-yl)-4-pyrimidinylamine] | 50 to 500

SMILES | IC50 [nM]
Nc1ncnc(-c2cnn(Cc3ccc(C(F)(F)F)cc3)c2)c1-c1ccc(Cl)c(F)c1 [Example 27, 5-(4-Chloro-3-fluorophenyl)-6-(1-{[p-(trifluoromethyl)phenyl]methyl}-1H-pyrazol-4-yl)-4-pyrimidinylamine] | < 50
CC(c1cccc(C(F)(F)F)c1)n1cc(-c2ncnc(N)c2-c2ccc(Cl)cc2)cn1 (racemic) [Example 3, (±)-5-(p-Chlorophenyl)-6-(1-{1-[m-(trifluoromethyl)phenyl]ethyl}-1H-pyrazol-4-yl)-4-pyrimidinylamine] | 50 to 500
COc1ccc(-c2c(N)ncnc2-c2cnn(Cc3ccc(C(F)(F)F)cc3)c2)cc1Cl [Example 30, 5-(3-Chloro-4-methoxyphenyl)-6-(1-{[p-(trifluoromethyl)phenyl]methyl}-1H-pyrazol-4-yl)-4-pyrimidinylamine] | 500 to 10000
CN(C)C(=O)C(c1ccccc1)n1cc(-c2ncnc(N)c2-c2ccc(Cl)cc2)cn1 (racemic) [Example 9, (±)-N,N-Dimethyl{4-[6-amino-5-(p-chlorophenyl)-4-pyrimidinyl]-1H-pyrazol-1-yl}phenylacetamide] | 50 to 500
Nc1ncnc(-c2cnn(Cc3ccc(F)cc3F)c2)c1-c1ccc(Cl)cc1 [Example 19, 5-(p-Chlorophenyl)-6-{1-[(2,4-difluorophenyl)methyl]-1H-pyrazol-4-yl}-4-pyrimidinylamine] | < 50
Cc1ccccc1-n1cc(-c2ncnc(N)c2-c2ccc(Cl)cc2)cn1 [Example 11, 5-(p-Chlorophenyl)-6-[1-(o-tolyl)-1H-pyrazol-4-yl]-4-pyrimidinylamine] | 50 to 500
Nc1ncnc(-c2cnn(Cc3ccc(C(F)(F)F)cc3)c2)c1-c1ccc2c(c1)OC(F)(F)O2 [Example 35, 5-(2,2-Difluoro-2H-1,3-benzodioxol-5-yl)-6-(1-{[p-(trifluoromethyl)phenyl]methyl}-1H-pyrazol-4-yl)-4-pyrimidinylamine] | 500 to 10000
Nc1ncnc(-c2cnn(Cc3ccc(OC(F)(F)F)cc3)c2)c1-c1ccc(Cl)cc1 [Example 20, 5-(p-Chlorophenyl)-6-{1-[(p-trifluoromethoxyphenyl)methyl]-1H-pyrazol-4-yl}-4-pyrimidinylamine] | < 50
Nc1ncnc(-c2cnn(Cc3ccc(C(F)(F)F)cc3)c2)c1-c1ccc(Cl)cc1 [Example 4, 5-(p-Chlorophenyl)-6-(1-{[p-(trifluoromethyl)phenyl]methyl}-1H-pyrazol-4-yl)-4-pyrimidinylamine] | < 50
Nc1ncnc(-c2cnn(Cc3ccccc3)c2)c1-c1ccc(Cl)cc1 [Example 1, 6-(1-Benzyl-1H-pyrazol-4-yl)-5-(p-chlorophenyl)-4-pyrimidinylamine] | < 50
Nc1ncnc(-c2cnn(Cc3ccccc3F)c2)c1-c1ccc(Cl)cc1 [Example 21, 5-(p-Chlorophenyl)-6-{1-[(o-fluorophenyl)methyl]-1H-pyrazol-4-yl}-4-pyrimidinylamine] | < 50
C=C(c1ccccc1)n1cc(-c2ncnc(N)c2-c2ccc(Cl)cc2)cn1 [Example 7, 5-(p-Chlorophenyl)-6-[1-(1-phenylethenyl)-1H-pyrazol-4-yl]-4-pyrimidinylamine] | < 50
Nc1ncnc(-c2cnn(C3CCCCO3)c2)c1-c1ccc(Cl)cc1 (stereo not drawn) [Example 14, 5-(p-Chlorophenyl)-6-[1-(tetrahydro-2H-pyran-2-yl)-1H-pyrazol-4-yl]-4-pyrimidinylamine] | 500 to 10000
Nc1ncnc(-c2cnn(Cc3ccc(C(F)(F)F)cc3)c2)c1-c1ccc(F)c(F)c1 [Example 31, 5-(3,4-Difluorophenyl)-6-(1-{[p-(trifluoromethyl)phenyl]methyl}-1H-pyrazol-4-yl)-4-pyrimidinylamine] | < 50
NC(=O)C(c1ccccc1)n1cc(-c2ncnc(N)c2-c2ccc(Cl)cc2)cn1 (racemic) [Example 8, (±)-{4-[6-Amino-5-(p-chlorophenyl)-4-pyrimidinyl]-1H-pyrazol-1-yl}phenylacetamide] | < 50
COc1ccc(-c2c(N)ncnc2-c2cnn(Cc3ccc(C(F)(F)F)cc3)c2)cc1F [Example 32, 5-(3-Fluoro-4-methoxyphenyl)-6-(1-{[p-(trifluoromethyl)phenyl]methyl}-1H-pyrazol-4-yl)-4-pyrimidinylamine] | < 50
Nc1ncnc(-n2cc(Cc3ccccc3)cn2)c1-c1ccc(Cl)cc1 [Example 23, 6-(4-Benzyl-1H-pyrazol-1-yl)-5-(p-chlorophenyl)-4-pyrimidinylamine] | 50 to 500
COc1ccc(-c2c(N)ncnc2-c2cnn(Cc3ccc(C(F)(F)F)cc3)c2)cc1 [Example 24, 5-(p-Methoxyphenyl)-6-(1-{[p-(trifluoromethyl)phenyl]methyl}-1H-pyrazol-4-yl)-4-pyrimidinylamine] | < 50
